From patent US20220175761A1, “BI-LIGAND DRUG CONJUGATE AND USE THEREOF” (COHERENT BIOPHARMA (SUZHOU), LIMITED, priority 2019, published 2022)
Numbered stars: 1 amine (or outer) side, 2 acyl side, 3 side chain; on linkers, the order of the positions; unused ones are H or OH. Bridge positions count the residues as written; N and C are the ends. Square brackets hold non-standard residues; d marks the D form. Peptide text beside a SMILES is read from it. I, II: the chains in the order shown. * marks the point of attachment. ξ: configuration not given here. Exatecan = CC[C@@]1(O)C(=O)OCc2c1cc1n(c2=O)Cc2c-1nc1cc(F)c(C)c3c1c2[C@@H](N*)CC3; Hexanoyl(6-succinimido-3yl) = O=C1CC([*:1])C(=O)N1CCCCCC(=O)[*:2]; Pteroyl = Nc1nc2ncc(CNc3ccc(C(=O)*)cc3)nc2c(=O)[nH]1; γGlu = O=C(O)[C@H](CCC(=O)[*:2])N[*:1]; NHCH2OCH2CO = O=C(COCN[*:1])[*:2]; ξV = CC(C)C(N)C(=O)O

Tests used:
[1] = system: lung cancer PDX model LU2505; experiment: Effectiveness in lung cancer LU2505 model (PDX model); assay type: in vivo, BALB/c nude mice
Source text: The active substance of test sample CBP-1018 is CB-20BK, which is obtained by mixing CB-20BK with auxiliary materials and then lyophilizing same.

[2] = system: lung cancer PDX model LU1206; experiment: Effectiveness in lung cancer LU1206 model (PDX model); assay type: in vivo, BALB/c nude mice
Protocol: BALB/c nude mice bore tumors subcutaneously and, when the tumor volume reached about 150 mm^3, were grouped into: low-dose, medium-dose and high-dose test sample groups, a small molecule MMAE control group, a targeting polypeptide 20BK-SM09 control group, and a blank control group (a total of 6 groups, and 8 mice per group); the mice were administered on day 1, day 8 and day 15 after the grouping; and the observation was continued for 14 days after the last administration.

[3] = system: CFPAC-1 (human pancreatic cancer cells); experiment: Inhibition of cell line proliferation, CCK8; assay type: cell-based; conditions: CFPAC-1, 68-72 hours, CCK8
Protocol: Experimental operations: PANC-1 and CFPAC-1 cells were prepared in advance, counted, and plated in 96-well cell culture plates at a cell density of 4×10^4 cells/ml (100 μl/well); negative control and blank control wells were set on each plate. After adherent cell culture overnight, the diluted samples to be tested were added at 50 μl/well. The plates were placed in an incubator at 37° C., 5% CO2 and cultured for 68-72 hours. To each well, 15 μl (10% of the liquid volume in a well) of a color developing solution from CCK8 was added; and the plates were incubated at 37° C. for 45-70 minutes and each plate was read at 450 nm on a microplate reader. The data was edited using SoftMax Pro and a 4-P fitting curve was plotted.
(§1) Experimental operations: LNCaP, SK-BR-3, NCI-H226, CFPAC-1 and PANC-1 cells were prepared in advance and counted; with a culture medium (IMDM+10% FBS+1× L-Glutamine+1×P/S), the cells LNCaP, SK-BR-3 and CFPAC-1 were diluted to 4×10^4 cells/ml, NCI-H226 was diluted to 2.0×10^4 cells/ml and PANC-1 was diluted to 3.0×10^4 cells/ml; the diluted cell solution was plated in 96-well plates at 100 μl/well; and negative control and blank control wells were set on each plate. After adherent cell culture overnight, the diluted samples to be tested were added at 50 μl/well. The plates were placed in an incubator at 37° C., 5% CO2 and cultured for 68-72 hours. To each well, 15 μl (10% of the liquid volume in a well) of a color developing solution from CCK8 was added; and the plates were incubated at 37° C. for 45-70 minutes and each plate was read at 450 nm on a microplate reader. The data was edited using SoftMax Pro and a 4-P fitting curve was plotted.
(§2) Experimental Operations: LNCaP, SK-BR-3, MDA-MB-468 and CFPAC-1 cells were prepared in advance and counted; with a culture medium (IMDM+10% FBS+1× L-Glutamine+1×P/S), the cells LNCaP, SK-BR-3, MDA-MB-468 and CFPAC-1 were diluted to 4×10^4 cells/ml; the diluted cell solution was plated in 96-well plates at 100 µl/well; and negative control and blank control wells were set on each plate. After adherent cell culture overnight, the diluted samples to be tested were added at 50 μl/well. The plates were placed in an incubator at 37° C., 5% CO2 and cultured for 68-72 hours. To each well, 15 μl (10% of the liquid volume in a well) of a color developing solution from CCK8 was added; and the plates were incubated at 37° C. for 45-70 minutes and each plate was read at 450 nm on a microplate reader. The data was edited using SoftMax Pro and a 4-P fitting curve was plotted.
as §2, with “Operations: LNCaP, MDA-MB-468, CFPAC-1 and PANC-1” for “Operations: LNCaP, SK-BR-3, MDA-MB-468 and CFPAC-1”, “CFPAC-1 and PANC-1 cells were” for “MDA-MB-468 and CFPAC-1 cells were”, “cells LNCaP, MDA-MB-468 and” for “cells LNCaP, SK-BR-3, MDA-MB-468 and”, “to 4×10^4 cells/ml, and PANC-1 was diluted to 3.0×10^4 cells/ml; the” for “to 4×10^4 cells/ml; the”, “at 100 μl/well; and negative” for “at 100 µl/well; and negative”
Experimental operations: NCI-H226, CFPAC-1 and MDA-MB-468 cells were prepared in advance and counted; MDA-MB-468 and CFPAC-1 cells were plated at a density of 2×10^4 cells/ml (100 μl/well) and NCI-H226 cells were plated at a density of 1×10^4 cells/ml (100 μl/well) in 96-well plates; and negative control and blank control wells were set on each plate. After adherent cell culture overnight, the diluted samples to be tested were added at 50 μl/well. The plates were placed in an incubator at 37° C., 5% CO2 and cultured for 68-72 hours. […]

[4] = system: NCI-H226 (human lung cancer cells); experiment: Inhibition of cell line proliferation, CCK8; assay type: cell-based; conditions: NCI-H226, 68-72 hours, CCK8
Protocol: as §1
(§3) Experimental operations: NCI-H226, CFPAC-1 and MDA-MB-468 cells were prepared in advance and counted; MDA-MB-468 and CFPAC-1 cells were plated at a density of 2×10^4 cells/ml (100 μl/well) and NCI-H226 cells were plated at a density of 1×10^4 cells/ml (100 μl/well) in 96-well plates; and negative control and blank control wells were set on each plate. After adherent cell culture overnight, the diluted samples to be tested were added at 50 μl/well. The plates were placed in an incubator at 37° C., 5% CO2 and cultured for 68-72 hours. To each well, 15 μl (10% of the liquid volume in a well) of a color developing solution from CCK8 was added; and the plates were incubated at 37° C. for 45-70 minutes and each plate was read at 450 nm on a microplate reader. The data was edited using SoftMax Pro and a 4-P fitting curve was plotted.

[5] = system: MDA-MB-468 (human breast cancer cells); experiment: Inhibition of cell line proliferation, CCK8; assay type: cell-based; conditions: MDA-MB-468, 68-72 hours, CCK8
Protocol: as §2
as §2, with “Operations: LNCaP, MDA-MB-468, CFPAC-1 and PANC-1” for “Operations: LNCaP, SK-BR-3, MDA-MB-468 and CFPAC-1”, “CFPAC-1 and PANC-1 cells were” for “MDA-MB-468 and CFPAC-1 cells were”, “cells LNCaP, MDA-MB-468 and” for “cells LNCaP, SK-BR-3, MDA-MB-468 and”, “to 4×10^4 cells/ml, and PANC-1 was diluted to 3.0×10^4 cells/ml; the” for “to 4×10^4 cells/ml; the”, “at 100 μl/well; and negative” for “at 100 µl/well; and negative”
as §3

[6] = 10 mg/kg on day 1, 8, 15, euthanized on day 29

## NCCCC[C@H](CC(=O)[C@H](CC(=O)O)NC(=O)[C@H](CC(=O)O)NC(=O)Cc1ccc(CNC(=O)NCCCC[C@H](NC(=O)N[C@@H](CCC(=O)O)C(=O)O)C(=O)O)cc1)C(=O)N[C@@H](CS)C(=O)N[C@@H](CCCCNC(=O)CC[C@H](NC(=O)c1ccc(NCc2cnc3[nH]c(N)nc(=O)c3n2)cc1)C(=O)O)C(N)=O [20BK-SM09]
[1]; 10 mg/kg
  tumor growth inhibition effect (in words): no obvious tumor growth inhibition effect
[1]; 10 mg/kg on day 1, 8, 15, D22
  Tumor volume: 2024.75 mm^3
  Tumor weight: 1811.5 (D22) mg
[2]; 10 mg/kg
  tumor growth inhibition effect (in words): no obvious tumor growth inhibition effect
[2]; 10 mg/kg on day 1, 8, 15
  Tumor volume: 1158.80 mm^3
[2]; [6]
  Tumor weight: 914.36 mg
  Tumor weight Inhibition ratio: −6.80%

## CC[C@@]1(O)C(=O)OCc2c1cc1n(c2=O)Cc2c-1nc1cc(F)c(C)c3c1c2[C@@H](NC(=O)COCNC(=O)CNC(=O)[C@H](Cc1ccccc1)NC(=O)CNC(=O)CNC(=O)CCCCCN1C(=O)CC(SC[C@H](NC(=O)CC[C@H](NC(=O)c2ccc(NCc4cnc5[nH]c(N)nc(=O)c5n4)cc2)C(=O)O)C(=O)N[C@@H](CCCCN)C(=O)N[C@@H](CCC(=O)O)C(=O)N[C@@H](Cc2ccccc2)C(=O)N[C@@H](CC(C)C)C(=O)N[C@@H](Cc2cnc[nH]2)C(=O)N2CCC[C@H]2C(=O)N[C@@H](CO)C(=O)N[C@@H](CCCCN)C(=O)NC(C(=O)N[C@@H](CC(=O)O)C(=O)N[C@@H](CC(C)C)C(=O)N2CCC[C@H]2C(=O)N[C@@H](CCCNC(=N)N)C(=O)O)C(C)C)C1=O)CC3 (stereo partly shown) [CR19425] (I: {Pteroyl-γGlu}-CKEFLHPSK[ξV]DLPR-OH / II: GGFG[NHCH2OCH2CO]-Exatecan; linker I:1-II:N via Hexanoyl(6-succinimido-3yl))
[3]
  IC50: 621 nM
[4]
  IC50: 1010 nM
[5]
  IC50: 951 nM

## CCCC(=O)N[C@@H](Cc1ccccc1)C(=O)N[C@H]1CSSC[C@@H](C(=O)N[C@H](C(=O)N[C@@H](CCCCNC(=O)[C@H](CCC(=O)O)NC(=O)CCOCCOCCOCCOCCNC(=O)[C@H](CCC(=O)O)NC(=O)[C@H](CSC2CC(=O)N(CCCCCC(=O)NCC(=O)NCC(=O)N[C@@H](Cc3ccccc3)C(=O)NCC(=O)NCOCC(=O)N[C@H]3CCc4c(C)c(F)cc5nc6c(c3c45)Cn3c-6cc4c(c3=O)COC(=O)[C@]4(O)CC)C2=O)NC(=O)CC[C@H](NC(=O)c2ccc(NCc3cnc4[nH]c(N)nc(=O)c4n3)cc2)C(=O)O)C(N)=O)[C@@H](C)O)NC(=O)[C@H]([C@@H](C)O)NC(=O)[C@H](CCCCN)NC(=O)[C@H](Cc2c[nH]c3ccccc23)NC(=O)[C@H](Cc2ccc(O)cc2)NC1=O (stereo partly shown) [CR19426]
[3]
  IC50: 1660 nM
[4]
  IC50: 4390 nM
[5]
  IC50: 2300 nM

## CC[C@@]1(O)C(=O)OCc2c1cc1n(c2=O)Cc2c-1nc1cc(F)c(C)c3c1c2[C@@H](NC(=O)CO)CC3 [Dxd0017, reference compound]
[3]
  IC50: 6.4 nM
[4]
  IC50: 8 nM
[5]
  IC50: 6.1 nM

## CCc1c2c(nc3ccc(O)cc13)-c1cc3c(c(=O)n1C2)COC(=O)[C@]3(O)CC [SN-38, reference compound]
[3]
  IC50: 5.5 nM
[4]
  IC50: 17.3 nM
[5]
  IC50: 13.6 nM
